Reference: patent US11389456B2, “Compounds and methods for treating oxalate-related diseases” (OxaluRx, Inc., priority 2018, dated 2022)

Target: recombinant full-length human hydroxyacid oxidase 1 (HAO1), the equivalent of hGOX (Homo sapiens (Human), UniProt Q9UJM8)
Experiment: In-vitro human glycolate oxidase (hGOX) assay (Amplex red/HRP fluorescence)
Type: biochemical
Details: 12.5 nM HAO1, 85 μM glycolate, 2.5% DMSO; read-out: IC50
Procedure: Biological Activity Assay: In-Vitro Human Glycolate Oxidase (hGOX) Assay
The in-vitro glycolate oxidase assay was performed using recombinant full-length human hydroxyacid oxidase 1 (HAO1), the equivalent of hGOX. […] Purified HAO1 was dissolved in assay buffer consisting of 10 mM NaCl, 110 mM KCl, 2 mM MgCl2, 50 mM HEPES (pH 7.4) and 0.01% Triton™ X-100.

Chain of recombinant full-length human hydroxyacid oxidase 1 (HAO1), the equivalent of hGOX (Q9UJM8 whole entry): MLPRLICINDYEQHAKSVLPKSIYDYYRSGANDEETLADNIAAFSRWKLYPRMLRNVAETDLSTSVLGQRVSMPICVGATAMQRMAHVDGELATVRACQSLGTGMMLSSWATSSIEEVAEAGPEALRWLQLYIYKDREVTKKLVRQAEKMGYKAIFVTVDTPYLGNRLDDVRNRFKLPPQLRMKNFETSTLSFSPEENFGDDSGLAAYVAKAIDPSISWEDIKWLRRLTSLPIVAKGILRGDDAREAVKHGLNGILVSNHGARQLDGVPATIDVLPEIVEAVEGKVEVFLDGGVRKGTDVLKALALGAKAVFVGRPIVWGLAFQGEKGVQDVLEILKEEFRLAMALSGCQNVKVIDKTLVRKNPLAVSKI

IC50	SMILES
820 nM	O=C(O)c1nn[nH]c1Sc1ccc(C(F)(F)F)cc1 [Example I-016, 5-((4-(Trifluoromethyl)phenyl)thio)-1H-1,2,3-triazole-4-carboxylic acid]
74 nM	O=C(O)c1nn[nH]c1Oc1cccc(C2CC2)c1 [Example I-293, 5-(3-Cyclopropylphenoxy)-1H-1,2,3-triazole-4-carboxylic acid]
61 nM	Cc1cc(Oc2[nH]nnc2C(=O)O)ccc1F [Example I-306, 5-(4-Fluoro-3-methylphenoxy)-1H-1,2,3-triazole-4-carboxylic acid]
360 nM	Cc1ccccc1Sc1[nH]nnc1C(=O)O [Example I-010, 5-(o-Tolylthio)-1H-1,2,3-triazole-4-carboxylic acid]
> 500000 nM	CCOC(=O)c1nn[nH]c1Nc1ccc(C)cc1 [Example I-291, ethyl 5-(p-tolylamino)-1H-1,2,3-triazole-4-carboxylate]
140 nM	COc1ccc(Sc2[nH]nnc2C(=O)O)cc1 [Example I-004, 5-((4-Methoxyphenyl)thio)-1H-1,2,3-triazole-4-carboxylic acid]
130 nM	O=C(O)c1nn[nH]c1Sc1cccc(F)c1 [Example I-015, 5-((3-Fluorophenyl)thio)-1H-1,2,3-triazole-4-carboxylic acid]
> 500000 nM	CCOC(=O)c1nn[nH]c1Nc1ccc(OC)cc1 [Example I-289, Ethyl 5-((4-methoxyphenyl)amino)-1H-1,2,3-triazole-4-carboxylate]
5 nM	O=C(O)c1nn[nH]c1Oc1ccc(-c2ccc(OC(F)(F)F)c(F)c2)cc1 [Example I-310, 5-((3′-Fluoro-4′-(trifluoromethoxy)-[1,1′-biphenyl]-4-yl)oxy)-1H-1,2,3-triazole-4-carboxylic acid]
169 nM	COc1cc(OC)cc(-c2cccc(Oc3[nH]nnc3C(=O)O)c2)c1 [Example I-303, 5-((3′,5′-Dimethoxy-[1,1′-biphenyl]-3-yl)oxy)-1H-1,2,3-triazole-4-carboxylic acid]
56 nM	Cc1ccc(Oc2[nH]nnc2C(=O)O)cc1C [Example I-039, 5-(3,4-Dimethylphenoxy)-1H-1,2,3-triazole-4-carboxylic acid]
1080 nM	COc1cc(OC)cc(-c2ccc(Oc3[nH]nnc3C(=O)O)cc2)c1 [Example I-301, 5-((3′,5′-Dimethoxy-[1,1′-biphenyl]-4-yl)oxy)-1H-1,2,3-triazole-4-carboxylic acid]
27 nM	O=C(O)c1nn[nH]c1Oc1ccc(F)c(Cl)c1 [Example I-309, 5-(3-Chloro-4-fluorophenoxy)-1H-1,2,3-triazole-4-carboxylic acid]
70 nM	O=C(O)c1nn[nH]c1Sc1ccc(Br)cc1 [Example I-007, 5-((4-Bromophenyl)thio)-1H-1,2,3-triazole-4-carboxylic acid]
43 nM	O=C(O)c1[nH]nnc1Sc1ccc(Cl)c(Cl)c1 [Example I-025, 5-((3,4-Dichlorophenyl)thio)-1H-1,2,3-triazole-4-carboxylic acid]
360 nM	O=C(O)c1nn[nH]c1Oc1ccccc1 [Example I-057, 5-Phenoxy-1H-1,2,3-triazole-4-carboxylic acid]
539 nM	O=C(O)c1nn[nH]c1Oc1cccc(N2CCOCC2)c1 [Example I-282, 5-(3-Morpholinophenoxy)-1H-1,2,3-triazole-4-carboxylic acid]
88 nM	O=C(O)c1[nH]nnc1Oc1ccc(F)c(F)c1 [Example I-307, 5-(3,4-Difluorophenoxy)-1H-1,2,3-triazole-4-carboxylic acid]
230 nM	CC(C)c1cccc(Oc2[nH]nnc2C(=O)O)c1 [Example I-278, 5-(3-Isopropylphenoxy)-1H-1,2,3-triazole-4-carboxylic acid]

IC50	SMILES
251000 nM	CCOC(=O)c1nn[nH]c1Sc1ccccc1Cl [Example I-012, Ethyl 5-((2-chlorophenyl)thio)-1H-1,2,3-triazole-4-carboxylate]
3760 nM	Cc1ccc(Nc2[nH]nnc2C(=O)O)cc1 [Example I-292, 5-(p-Tolylamino)-1H-1,2,3-triazole-4-carboxylic acid]
200 nM	O=C(O)c1nn[nH]c1Sc1ccccc1F [Example I-013, 5-((2-Fluorophenyl)thio)-1H-1,2,3-triazole-4-carboxylic acid]
430000 nM	CCOC(=O)c1nn[nH]c1Sc1ccccc1F [Example I-014, Ethyl 5-((2-fluorophenyl)thio)-1H-1,2,3-triazole-4-carboxylate]
2 nM	O=C(O)c1nn[nH]c1Oc1cccc(-c2ccc3c(c2)OCO3)c1 [Example I-305, 5-(3-(Benzo[d][1,3]dioxol-5-yl)phenoxy)-1H-1,2,3-triazole-4-carboxylic acid]
230 nM	Cc1ccc(Sc2[nH]nnc2C(=O)O)c(C)c1 [Example I-009, 5-((2,4-Dimethylphenyl)thio)-1H-1,2,3-triazole-4-carboxylic acid]
370 nM	O=C(O)c1nn[nH]c1Oc1cccc(N2CCCCC2)c1 [Example I-281, 5-(3-(Piperidin-1-yl)phenoxy)-1H-1,2,3-triazole-4-carboxylic acid]
112 nM	CC(C)c1ccc(Oc2[nH]nnc2C(=O)O)cc1 [Example I-274, 5-(4-Isopropylphenoxy)-1H-1,2,3-triazole-4-carboxylic acid]
> 500000 nM	CCOC(=O)c1nn[nH]c1Sc1ccc(Br)cc1 [Example I-008, Ethyl 5-((4-bromophenyl)thio)-1H-1,2,3-triazole-4-carboxylate]
270 nM	O=C(O)c1nn[nH]c1Sc1ccccc1Cl [Example I-011, 5-((2-Chlorophenyl)thio)-1H-1,2,3-triazole-4-carboxylic acid]
4860 nM	O=C(O)c1nn[nH]c1Sc1nc2ccccc2s1 [Example I-032, 5-(Benzo[d]thiazol-2-ylthio)-1H-1,2,3-triazole-4-carboxylic acid]
33 nM	O=C(O)c1nn[nH]c1Oc1ccc(-c2cc(Cl)cc(Cl)c2)cc1 [Example I-300, 5-((3′,5′-Dichloro-[1,1′-biphenyl]-4-yl)oxy)-1H-1,2,3-triazole-4-carboxylic acid]
160 nM	Cc1ccc(Sc2[nH]nnc2C(=O)O)cc1 [Example I-003, 5-(p-Tolylthio)-1H-1,2,3-triazole-4-carboxylic acid]
4 nM	C#Cc1ccc(Oc2[nH]nnc2C(=O)O)cc1 [Example I-297, 5-(4-Ethynylphenoxy)-1H-1,2,3-triazole-4-carboxylic acid]
172 nM	O=C(O)c1nn[nH]c1Oc1cccc(N2CCCC2)c1 [Example I-283, 5-(3-(Pyrrolidin-1-yl)phenoxy)-1H-1,2,3-triazole-4-carboxylic acid]
2310 nM	COc1ccccc1Sc1[nH]nnc1C(=O)O [Example I-006, 5-((2-Methoxyphenyl)thio)-1H-1,2,3-triazole-4-carboxylic acid]
34 nM	O=C(O)c1nn[nH]c1Oc1ccc(Cl)c(F)c1 [Example I-308, 5-(4-Chloro-3-fluorophenoxy)-1H-1,2,3-triazole-4-carboxylic acid]
79 nM	CCc1cccc(Oc2[nH]nnc2C(=O)O)c1 [Example I-295, 5-(3-Ethylphenoxy)-1H-1,2,3-triazole-4-carboxylic acid]
6530 nM	COc1ccc(Nc2[nH]nnc2C(=O)O)cc1 [Example I-290, 5-((4-Methoxyphenyl)amino)-1H-1,2,3-triazole-4-carboxylic acid]
